Assay results from patent US12195482B1 (Arcus Biosciences, Inc., priority 2022, dated 2025).

Columns and labels:
Axl = molecular target: T1, Axl (Homo sapiens, UniProt P30530); assay: Biochemical potency, HTRF KinEASE-TK kinase assay; parameters: purchased Invitrogen; details: 5 nM AXL, 700 μM ATP
T1 sequence (P30530 26-894): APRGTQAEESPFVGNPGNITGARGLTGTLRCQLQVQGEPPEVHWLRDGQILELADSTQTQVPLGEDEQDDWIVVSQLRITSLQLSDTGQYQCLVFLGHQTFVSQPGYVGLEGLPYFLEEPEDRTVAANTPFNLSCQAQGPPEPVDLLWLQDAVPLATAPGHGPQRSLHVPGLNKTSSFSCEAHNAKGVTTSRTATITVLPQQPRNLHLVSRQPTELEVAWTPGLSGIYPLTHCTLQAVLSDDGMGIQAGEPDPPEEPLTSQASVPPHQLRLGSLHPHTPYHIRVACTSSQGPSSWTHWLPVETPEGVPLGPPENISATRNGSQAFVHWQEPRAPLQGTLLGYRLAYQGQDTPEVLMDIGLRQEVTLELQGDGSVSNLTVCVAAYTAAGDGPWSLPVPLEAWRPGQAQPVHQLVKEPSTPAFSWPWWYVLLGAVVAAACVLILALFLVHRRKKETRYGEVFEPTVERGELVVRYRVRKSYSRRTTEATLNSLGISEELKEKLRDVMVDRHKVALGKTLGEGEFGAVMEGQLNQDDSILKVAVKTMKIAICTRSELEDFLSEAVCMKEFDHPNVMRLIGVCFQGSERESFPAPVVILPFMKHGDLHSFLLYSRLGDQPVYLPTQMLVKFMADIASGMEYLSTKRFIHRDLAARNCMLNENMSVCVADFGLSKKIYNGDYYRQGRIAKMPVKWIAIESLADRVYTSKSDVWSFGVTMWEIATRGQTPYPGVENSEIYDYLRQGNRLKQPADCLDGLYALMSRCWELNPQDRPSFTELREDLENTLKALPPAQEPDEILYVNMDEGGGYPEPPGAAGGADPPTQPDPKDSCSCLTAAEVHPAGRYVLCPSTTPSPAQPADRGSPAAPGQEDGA
Summary of the method: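 Phosphorylation of a biotinylated tyrosine-kinase peptide (800 nM) by AXL (5 nM) or TYRO3/MER (1 nM) is measured at 700 µM ATP after 2 h at room temperature, following 1 h enzyme–compound preincubation. Signal is the time-resolved FRET ratio, converted to percent activity.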

p-AXL = molecular target: T2, p-AXL (Homo sapiens, UniProt P30530); assay: Axl phosphorylation inhibition ELISA in HEK293T cells transfected with NanoLuc-tagged AXL; assay type: cell-based; details: 1 h compound incubation, media (OptiMEM)
T2 construct: expressed in transfected cells; host or cells: HEK293T
T2 sequence (P30530 26-894): T1 sequence (P30530 26-894)
Summary of the method: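 HEK293T cells transiently transfected one day earlier with NanoLuc-tagged AXL were exposed to 22-point 2-fold compound dilutions for 1 h at 37° C (70,000 cells/well), then lysed. Lysates captured on anti-phospho-tyrosine coated plates for 2 h; bound p-AXL read by NanoLuc luminescence; IC50 from 4-parameter logistic fit.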

Row | Structure (SMILES) | IC50 (Axl) [nM] | IC50 (p-AXL) [nM]
1 | O=C1CCCCN1c1cccnc1-c1ccc(-c2n[nH]c3ncc(-c4ccc5c(c4)CC[C@@H](N4C6COCC4C6)CC5)cc23)cc1 [Example 127, 1-[2-(4-{5-[(7S)-7-{3-Oxa-6-azabicyclo[3.1.1]heptan-6-yl}-6,7,8,9-tetrahydro-5H-benzo[7]annulen-2-yl]-1H-pyrazolo[3,4-b]pyridin-3-yl}phenyl)pyridin-3-yl]piperidin-2-one] | < 100 | < 100
2 | Cc1cccnc1-c1ccc(-c2n[nH]c3ncc(-c4ccc5c(c4)CC[C@@H](N4C6COCC4C6)CC5)cc23)nc1 [Example 26, 3-Methyl-6′-{5-[(7S)-7-{3-oxa-6-azabicyclo[3.1.1]heptan-6-yl}-6,7,8,9-tetrahydro-5H-benzo[7]annulen-2-yl]-1H-pyrazolo[3,4-b]pyridin-3-yl}-2,3′-bipyridine] | < 100 | < 100
3 | O=C1OCCN1c1cccnc1-c1ccc(-c2n[nH]c3ncc(-c4ccc5c(c4)CC[C@@H](N4C6COCC4C6)CC5)cc23)cc1 [Example 121, 3-[2-(4-{5-[(7S)-7-{3-Oxa-6-azabicyclo[3.1.1]heptan-6-yl}-6,7,8,9-tetrahydro-5H-benzo[7]annulen-2-yl]-1H-pyrazolo[3,4-b]pyridin-3-yl}phenyl)pyridin-3-yl]-1,3-oxazolidin-2-one] | < 100 | < 100
4 | CC(C)(O)c1cccnc1-c1ccc(-c2n[nH]c3ncc(-c4ccc5c(c4)CC[C@@H](N4C6COCC4C6)CC5)cc23)nc1 [Example 100, 2-(6′-{5-[(7S)-7-{3-Oxa-6-azabicyclo[3.1.1]heptan-6-yl}-6,7,8,9-tetrahydro-5H-benzo[7]annulen-2-yl]-1H-pyrazolo[3,4-b]pyridin-3-yl}-[2,3′-bipyridin]-3-yl)propan-2-ol] | < 100 | < 100
5 | Cc1ccnc(-c2ccc(-c3n[nH]c4ncc(-c5ccc6c(c5)CC[C@@H](N5C7COCC5C7)CC6)cc34)cc2)c1C [Example 118, 6-[(7S)-2-{3-[4-(3,4-Dimethylpyridin-2-yl)phenyl]-1H-pyrazolo[3,4-b]pyridin-5-yl}-6,7,8,9-tetrahydro-5H-benzo[7]annulen-7-yl]-3-oxa-6-azabicyclo[3.1.1]heptane] | < 100 | < 100
6 | Cc1ncc(C)c(-c2ccc(-c3n[nH]c4ncc(-c5ccc6c(c5)CC[C@@H](N5C7COCC5C7)CC6)cc34)cc2)n1 [Example 122, 6-[(7S)-2-{3-[4-(2,5-Dimethylpyrimidin-4-yl)phenyl]-1H-pyrazolo[3,4-b]pyridin-5-yl}-6,7,8,9-tetrahydro-5H-benzo[7]annulen-7-yl]-3-oxa-6-azabicyclo[3.1.1]heptane] | < 100 | < 100
7 | CC(C)(O)c1ccccc1-c1ccc(-c2n[nH]c3ncc(-c4ccc5c(c4)CC[C@@H](N4C6COCC4C6)CC5)cc23)cn1 [Example 113, 2-[2-(5-{5-[(7S)-7-{3-Oxa-6-azabicyclo[3.1.1]heptan-6-yl}-6,7,8,9-tetrahydro-5H-benzo[7]annulen-2-yl]-1H-pyrazolo[3,4-b]pyridin-3-yl}pyridin-2-yl)phenyl]propan-2-ol] | < 100 | < 100
8 | C[C@@H]1CCCN1[C@@]1(C)CCc2ccc(-c3cnc4[nH]nc(-c5ccc(-c6ncnn6C)cc5)c4c3)cc2CC1 [Example 112, 1-Methyl-5-(4-{5-[(7S)-7-methyl-7-[(2R)-2-methylpyrrolidin-1-yl]-6,7,8,9-tetrahydro-5H-benzo[7]annulen-2-yl]-1H-pyrazolo[3,4-b]pyridin-3-yl}phenyl)-1H-1,2,4-triazole] | < 100 | < 100
9 | CN(C)C(=O)c1cccc(-c2ccc(-c3n[nH]c4ncc(-c5ccc6c(c5)CC[C@@H](N5C7COCC5C7)CC6)cc34)cc2)n1 [Example 94, N,N-Dimethyl-6-(4-{5-[(7S)-7-{3-oxa-6-azabicyclo[3.1.1]heptan-6-yl}-6,7,8,9-tetrahydro-5H-benzo[7]annulen-2-yl]-2H-pyrazolo[3,4-b]pyridin-3-yl}phenyl)pyridine-2-carboxamide] | < 100 | 100 to 1000
10 | Cc1nc(-c2ccc(-c3n[nH]c4ncc(-c5ccc6c(c5)CC[C@@H](N5C7COCC5C7)CC6)cc34)cc2)n(C)n1 [Example 23, 6-[(7S)-2-{3-[4-(1,3-Dimethyl-1H-1,2,4-triazol-5-yl)phenyl]-1H-pyrazolo[3,4-b]pyridin-5-yl}-6,7,8,9-tetrahydro-5H-benzo[7]annulen-7-yl]-3-oxa-6-azabicyclo[3.1.1]heptane] | < 100 | < 100
11 | c1ccc(-n2cc(-c3n[nH]c4ncc(-c5ccc6c(c5)CC[C@@H](N5C7COCC5C7)CC6)cc34)cn2)nc1 [Example 168, 6-[(7S)-2-{3-[1-(Pyridin-2-yl)-1H-pyrazol-4-yl]-1H-pyrazolo[3,4-b]pyridin-5-yl}-6,7,8,9-tetrahydro-5H-benzo[7]annulen-7-yl]-3-oxa-6-azabicyclo[3.1.1]heptane] | < 100 | 100 to 1000
12 | CN(C)C(=O)c1cccnc1-c1ccc(-c2n[nH]c3ncc(-c4ccc5c(c4)CC[C@@H](N4C6COCC4C6)CC5)cc23)cc1 [Example 167, N,N-Dimethyl-2-(4-{5-[(7S)-7-{3-oxa-6-azabicyclo[3.1.1]heptan-6-yl}-6,7,8,9-tetrahydro-5H-benzo[7]annulen-2-yl]-1H-pyrazolo[3,4-b]pyridin-3-yl}phenyl)pyridine-3-carboxamide] | < 100 | < 100

More lines, now with the values ahead:

Row | IC50 (Axl) [nM] | IC50 (p-AXL) [nM] | Structure (SMILES)
13 | < 100 | < 100 | Cc1cccnc1-c1ccc(-c2c[nH]c3ncc(-c4ccc5c(c4)CC[C@@H](N4CCCC4)CC5)cc23)cc1 [Example 173, 3-Methyl-2-(4-{5-[(7S)-7-(pyrrolidin-1-yl)-6,7,8,9-tetrahydro-5H-benzo[7]annulen-2-yl]-1H-pyrrolo[2,3-b]pyridin-3-yl}phenyl)pyridine]
14 | < 100 | > 1000 | Cc1ccccc1-c1ccc(-c2c[nH]c3ncc(-c4ccc5c(c4)CC[C@@H](N4C6COCC4C6)CC5)cc23)nc1 [Example 97, 6-[(7S)-2-{3-[5-(2-Methylphenyl)pyridin-2-yl]-1H-pyrrolo[2,3-b]pyridin-5-yl}-6,7,8,9-tetrahydro-5H-benzo[7]annulen-7-yl]-3-oxa-6-azabicyclo[3.1.1]heptane]
15 | < 100 | 100 to 1000 | CO[C@H]1C[C@@H](N[C@H]2CCc3ccc(-c4cnc5[nH]nc(-c6ccc(-c7ncccc7C)cc6)c5c4)cc3CC2)C1 [Example 131, (7S)-2-{3-[4-(3-Methylpyridin-2-yl)phenyl]-1H-pyrazolo[3,4-b]pyridin-5-yl}-N-[cis-3-methoxycyclobutyl]-6,7,8,9-tetrahydro-5H-benzo[7]annulen-7-amine]
16 | < 100 | < 100 | Cc1cccnc1-c1ccc(-c2c[nH]c3ncc(-c4ccc5c(c4)CC[C@@](C)(N4CCC[C@H]4C)CC5)cc23)cc1 [Example 172, 3-Methyl-2-(4-{5-[(7S)-7-methyl-7-[(2R)-2-methylpyrrolidin-1-yl]-6,7,8,9-tetrahydro-5H-benzo[7]annulen-2-yl]-1H-pyrrolo[2,3-b]pyridin-3-yl}phenyl)pyridine]
17 | < 100 | 100 to 1000 | C[C@@H]1CCCN1[C@@]1(C)CCc2ccc(-c3cnc4[nH]cc(-c5ccc(-c6ccccn6)cc5)c4c3)cc2CC1 [Example 156, 2-(4-{5-[(7S)-7-Methyl-7-[(2R)-2-methylpyrrolidin-1-yl]-6,7,8,9-tetrahydro-5H-benzo[7]annulen-2-yl]-1H-pyrrolo[2,3-b]pyridin-3-yl}phenyl)pyridine]
18 | < 100 | 100 to 1000 | CCOc1cccnc1-c1ccc(-c2n[nH]c3ncc(-c4ccc5c(c4)CC[C@@H](N4C6COCC4C6)CC5)cc23)cc1 [Example 181, 6-[(7S)-2-{3-[4-(3-Ethoxypyridin-2-yl)phenyl]-1H-pyrazolo[3,4-b]pyridin-5-yl}-6,7,8,9-tetrahydro-5H-benzo[7]annulen-7-yl]-3-oxa-6-azabicyclo[3.1.1]heptane]
19 | < 100 | < 100 | O=C(c1cccnc1-c1ccc(-c2c[nH]c3ncc(-c4ccc5c(c4)CC[C@@H](N4C6COCC4C6)CC5)cc23)cc1)N1CCCC1 [Example 171, 6-[(7S)-2-(3-{4-[3-(Pyrrolidine-1-carbonyl)pyridin-2-yl]phenyl}-1H-pyrrolo[2,3-b]pyridin-5-yl)-6,7,8,9-tetrahydro-5H-benzo[7]annulen-7-yl]-3-oxa-6-azabicyclo[3.1.1]heptane]
